Measured values reported in patent US9328138B2 (priority 2011, dated 2016).
Where a name gives a salt, the structure may show the parent alone. Read-outs that look alike come from different tables or passages of the source.

What was measured:
[1] = amide bond, 18-membered ring
[2] = target: T1, HCV genotype 1b (BK) NS3 modified enzyme with a R155K mutation (Hepatitis C virus genotype 1b, UniProt P26663, R1181K); assay: HCV NS3 protease time-resolved fluorescence (TRF) assay, genotype 1b R155K; format: biochemical; conditions: Ki 1b R155K
T1 construct: HCV genotype 1b (BK) NS3 modified enzyme
How it was run: (§1)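 Assay buffer: 50 mM HEPES pH 7.5, 150 mM NaCl, 0.1% PEG 8000, 0.15% Triton X-100. Ten-minute enzyme–inhibitor preincubation; substrate at 25 nM final; 6 h reaction, room temperature; signal/background set at 5-20 by enzyme amount.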

[3] = target: HCV NS3 protease genotype 3a (3A-1) (Hepatitis C virus genotype 3a, UniProt Q81258); assay: HCV NS3 protease time-resolved fluorescence (TRF) assay, genotype 3a; format: biochemical; conditions: Ki 3a
How it was run: as §1

[4] = first of two values printed in the cell (not explained)
[5] = second of two values printed in the cell (not explained)
[6] = genotype 1b (BK) NS3 R155K, single value

Work on `CCOC(=O)[C@@]12C[C@H]1C=CCCCCC[C@H](NC(=O)OC(C)(C)C)C(=O)N1C[C@@H](OS(=O)(=O)c3ccc(Br)cc3)C[C@H]1C(=O)N2C(=O)OC(C)(C)C` yielded a ring closure, yield of all isomers (from C=CCCCCC[C@H](NC(=O)OC(C)(C)C)C(=O)N1C[C@@H](OS(=O)(=O)c2ccc(Br)cc2)C[C@H]1C(=O)N(C(=O)OC(C)(C)C)[C@]1(C(=O)OCC)C[C@H]1C=C, rcm bond, Zhan catalyst 1B, 1,2-dichloroethane, 10.0 mM, 75.0 °C, 2.0 h) of 84.8%.

`COC(=O)[C@@H]1C[C@@H]2CN1C(=O)[C@H](C1(C)CCCCC1)NC(=O)O[C@@H]1C[C@H]1CCCC#Cc1c(nc3ccccc3c1OCc1ccccc1)O2` gave a ring closure, isolated yield ([1]; from COC(=O)[C@@H]1C[C@@H](Oc2nc3ccccc3c(OCc3ccccc3)c2C#CCCC[C@@H]2C[C@H]2OC(=O)N[C@H](C(=O)O)C2(C)CCCCC2)CN1, HATU/DIEA, DMF, 50.0 mM) of 58.8% and a ring closure, yield of all isomers (from COC(=O)[C@@H]1C[C@@H](Oc2nc3ccccc3c(OCc3ccccc3)c2C#CCCC[C@@H]2C[C@H]2OC(=O)N[C@H](C(=O)O)C2(C)CCCCC2)CN1, amide bond, HATU, DMF, 50.0 mM, 25.0 °C, 3.0 h) of 58.8%.

For `CCOC(=O)[C@@]12C[C@H]1/C=C\CCCCC[C@@H]1NC(=O)O[C@@H]3C[C@H]3CCC/C=C/c3c(nc4ccccc4c3OCCN3CCCCC3)O[C@@H]3C[C@@H](C(=O)N2)N(C3)C1=O`, the ring closure, yield of all isomers (from CCOC(=O)[C@@]12C[C@H]1/C=C\CCCCC[C@H](NC(=O)O[C@@H]1C[C@H]1CCC/C=C/B1OC(C)(C)C(C)(C)O1)C(=O)N1C[C@H](Oc3nc4ccccc4c(OCCN4CCCCC4)c3Br)C[C@H]1C(=O)N2, cc_pd bond, Pd(OAc)2/cataCXium A, Cs2CO3, dioxane, 36.6 mM, 100.0 °C, 1.0 h) was 64.1%.

Compound `COC(=O)[C@@H]1C[C@@H]2CN1C(=O)[C@H](C1Cc3ccccc3C1)NC(=O)O[C@@H]1C[C@H]1CCCC#Cc1c(nc3ccccc3c1OCc1ccccc1)O2` has a ring closure, isolated yield ([1]; from COC(=O)[C@@H]1C[C@@H](Oc2nc3ccccc3c(OCc3ccccc3)c2C#CCCC[C@@H]2C[C@H]2OC(=O)N[C@H](C(=O)O)C2Cc3ccccc3C2)CN1, HATU/DIEA, DMF, 50.0 mM) of 80% and a ring closure, yield of all isomers (from COC(=O)[C@@H]1C[C@@H](Oc2nc3ccccc3c(OCc3ccccc3)c2C#CCCC[C@@H]2C[C@H]2OC(=O)N[C@H](C(=O)O)C2Cc3ccccc3C2)CN1, amide bond, HATU, DMF, 50.0 mM, 25.0 °C, 2.0 h) of 80%.

For `CCOc1c2c(nc3ccccc13)O[C@@H]1C[C@@H](C(=O)OC)N(C1)C(=O)[C@H](C1CCCC1)NC(=O)O[C@@H]1CCC[C@H]1CCC=CC2`, the ring closure, yield of all isomers (from C=CCC[C@@H]1CCC[C@H]1OC(=O)N[C@H](C(=O)N1C[C@H](Oc2nc3ccccc3c(OCC)c2CC=C)C[C@H]1C(=O)OC)C1CCCC1, rcm bond, Zhan catalyst 1B, 1,2-dichloroethane, 6.79 mM, 25.0 °C, 4.0 h) was 79.2%.

Compound `COC(=O)[C@@H]1C[C@@H]2CN1C(=O)[C@H](C(C)(C)C)NC(=O)O[C@H]1C[C@@H]1CCCCCc1c(nc3ccncc3c1OC1CCN(C)CC1)O2` has a ring closure, isolated yield ([1]; HATU, 2 steps) of 44.7% and a ring closure, yield of all isomers (from COC(=O)[C@@H]1C[C@@H](Oc2nc3ccncc3c(OC3CCN(C)CC3)c2CCCCC[C@@H]2C[C@H]2OC(=O)N[C@H](C(=O)OC(C)(C)C)C(C)(C)C)CN1C(=O)OC(C)(C)C, amide bond, HATU, DMF, 51.5 mM, 25.0 °C, 1.5 h, 2 steps) of 44.7%.

For `C=C[C@@H]1C[C@]1(NC(=O)[C@@H]1C[C@@H]2CN1C(=O)[C@H](C1CCCCC1)NC(=O)O[C@@H]1C[C@H]1CCCCCc1c(nc3ccccc3c1OC1CC3CCC(C1)N3C(=O)OC(C)(C)C)O2)C(=O)NS(=O)(=O)C1(C)CC1` (stereo partly drawn) [Example 282, tert-butyl 3-{[(1aR,5S,8S,10R,22aR)-5-cyclohexyl-8-{[(1R,2S)-2-ethenyl-1-{[(1-methylcyclopropyl)sulfonyl]carbamoyl}cyclopropyl]carbamoyl}-3,6-dioxo-1,1a,3,4,5,6,9,10,18,19,20,21,22,22a-tetradecahydro-8H-7,10-methanocyclopropa[18,19][1,10,3,6]dioxadiazacyclononadecino[11,12-b]quinolin-17-yl]oxy}-8-azabicyclo[3.2.1]octane-8-carboxylate], the Ki [2, 4] was 0.14 nM, the Ki [2, 5] was 5.3 nM and the Ki [3] was 140 nM.

With `C=C[C@@H]1C[C@]1(NC(=O)[C@@H]1C[C@@H]2CN1C(=O)[C@H](C(C)(C)C)NC(=O)O[C@@H]1CCC[C@H]1CCCCCc1c(nc3ccccc3c1OCCN1CCOCC1)O2)C(=O)NS(=O)(=O)C1CC1` [Example 104, (3aR,7S,10S,12R,24aR)-7-tert-butyl-N-{(1R,2S)-1-[(cyclopropylsulfonyl)carbamoyl]-2-ethenylcyclopropyl}-19-[2-(morpholin-4-yl)ethoxy]-5,8-dioxo-1,2,3,3a,5,6,7,8,11,12,20, 21,22,23,24,24a-hexadecahydro-10H-9,12-methanocyclopenta[18,19] [1,10,3,6]dioxadiaza-cyclononadecino[11,12-b] quinoline-10-carboxamide] the Ki [2, 6] was 1.3 nM and the Ki [3] was 26 nM.

Work on `C=C[C@@H]1C[C@]1(NC(=O)[C@@H]1C[C@@H]2CN1C(=O)[C@H](C1CCCC1)NC(=O)O[C@@H]1CCC[C@H]1CCCCCc1c(nc3ccccc3c1OC)O2)C(=O)NS(=O)(=O)C1CC1` [Example 26, (3aR,7S,10S,12R,24aR)-7-cyclo pentyl-N-{(1R,2S)-1-[(cyclopropylsulfonyl)carbamoyl]-2-ethenylcyclopropyl}-19-methoxy-5,8-dioxo-1,2,3,3a,5,6,7,8,11,12,20,21,22,23,24,24a-hexadecahydro-10H-9,12-methanocyclopenta [18,19][1,10,3,6]dioxadiazacyclononadecino [11,12-b]quinoline-10-carboxamide] yielded a Ki [2, 6] of 0.33 nM and a Ki [3] of 13 nM.

Compound `C=C[C@@H]1C[C@]1(NC(=O)[C@@H]1C[C@@H]2CN1C(=O)[C@H](C(C)(C)C)NC(=O)O[C@@H]1C[C@H]1CCCCCc1c(nc3ccccc3c1OCC1CN(CC)CCO1)O2)C(=O)NS(=O)(=O)C1(C)CC1` (stereo partly drawn) [Example 226, (1aR,5S,8S,10R,22aR)-5-tert-butyl-N-[(1R,2S)-2-ethenyl-1-{[(1-methylcyclopropyl)sulfonyl]carbamoyl}cyclopropyl]-17-[(4-ethylmorpholin-2-yl)methoxy]-3,6-dioxo-1,1a,3,4,5,6,9,10,18,19,20,21,22,22a-tetradecahydro-8H-7,10-methanocyclopropa[18,19][1,10,3,6] dioxadiazacyclononadecino[11,12-b]quinoline-8-carboxamide] has a Ki [2, 6] of 0.11 nM and a Ki [3] of 1.6 nM.

With `C=C[C@@H]1C[C@]1(NC(=O)[C@@H]1C[C@@H]2CN1C(=O)[C@H](C1CCCC1)NC(=O)O[C@@H]1CCC[C@H]1CC/C=C/Cc1c(nc3ccccc3c1OCCn1cccn1)O2)C(=O)NS(=O)(=O)C1CC1` [Example 44, (3aR,7S,10S,12R,21E,24aS)-7-cyclopentyl-N-{(1R,2S)-1-[(cyclopropylsulfonyl)carbamoyl]-2-ethenylcyclopropyl}-5,8-dioxo-19-[2-(1H-pyrazol-1-yl)ethoxy]-1,2,3,3a,5,6,7,8,11,12,20,23,24,24a-tetra decahydro-10H-9,12-methanocyclopenta[18,19][1,10,3,6]dioxadiazacyclonona decino[11,12-b] quinoline-10-carboxamide] the Ki [2, 6] was 0.25 nM and the Ki [3] was 7.9 nM.

Work on `C=C[C@@H]1C[C@]1(NC(=O)[C@@H]1C[C@@H]2CN1C(=O)[C@H](C(C)(C)C)NC(=O)O[C@@H]1C[C@H]1CCCCCc1c(nc3ccccc3c1OC1CC3CCC(C1)N3)O2)C(=O)NS(=O)(=O)C1(C)CC1` (single isomer, unassigned) [Example 279, trifluoroacetate] yielded a Ki [2, 4] of 0.012 nM, a Ki [2, 5] of 0.145 nM and a Ki [3] of 2.6 nM.
